Source: patent US9695155B2, “Herbicidal substituted pyrimidinyloxy benzene compounds” (E. I. DU PONT DE NEMOURS AND COMPANY, priority 2013, dated 2017)

How the values were obtained:
barnyardgrass [1] = test: Test A preemergence; assay type: in vivo, Echinochloa crus-galli; details: 0 to 100 scale where 0 is no effect and 100 is complete control; for Plant response rating, Barnyardgrass: 125 g ai/ha; for Barnyardgrass plant response rating: 500 g ai/ha
How it was run: (§1)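 Visual injury scored 0–100 (100 = complete control) against untreated controls about 10 days after treatment in a greenhouse. Test chemicals, formulated with surfactant in non-phytotoxic solvent, were sprayed on soil preemergence or on 2-10 cm, one- to two-leaf plants postemergence.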

large (Lg) crabgrass [2] = test: Test A preemergence; assay type: in vivo, Digitaria sanguinalis; details: 0 to 100 scale where 0 is no effect and 100 is complete control; for Plant response rating, Crabgrass, Large: 125 g ai/ha; for Crabgrass, Large plant response rating: 500 g ai/ha
How it was run: as §1

giant foxtail [3] = test: Test A preemergence; assay type: in vivo, Setaria faberii; details: 0 to 100 scale where 0 is no effect and 100 is complete control; for Plant response rating, Foxtail, Giant: 125 g ai/ha; for Foxtail, Giant plant response rating: 500 g ai/ha
How it was run: as §1

morningglory [4] = test: Test A preemergence; assay type: in vivo, Ipomoea spp.; details: for Morningglory plant response rating (0 to 100 scale): 125 g ai/ha; for Morningglory plant response rating: 500 g ai/ha, 0 to 100 scale where 0 is no effect and 100 is complete control
How it was run: as §1

pigweed [5] = test: Test A preemergence; assay type: in vivo, Amaranthus retroflexus; details: for Pigweed plant response rating (0 to 100 scale): 125 g ai/ha; for Pigweed plant response rating: 500 g ai/ha, 0 to 100 scale where 0 is no effect and 100 is complete control
How it was run: as §1

velvetleaf [6] = test: Test A preemergence; assay type: in vivo, Abutilon theophrasti; details: for Velvetleaf plant response rating (0 to 100 scale): 125 g ai/ha; for Velvetleaf plant response rating: 500 g ai/ha, 0 to 100 scale where 0 is no effect and 100 is complete control
How it was run: as §1

wheat [7] = test: Test A preemergence; assay type: in vivo, Triticum aestivum; details: for Wheat plant response rating (0 to 100 scale): 125 g ai/ha; for Wheat plant response rating: 500 g ai/ha, 0 to 100 scale where 0 is no effect and 100 is complete control
How it was run: as §1

corn [8] = test: Test A preemergence; assay type: in vivo, Zea mays; details: 0 to 100 scale where 0 is no effect and 100 is complete control; for Plant response rating, Corn: 125 g ai/ha; for Corn plant response rating: 500 g ai/ha
How it was run: as §1

barnyardgrass [9] = test: Test A postemergence; assay type: in vivo, Echinochloa crus-galli; details: 0 to 100 scale where 0 is no effect and 100 is complete control; for Barnyardgrass plant response rating: 125 g ai/ha; for Plant response rating, Barnyardgrass: 500 g ai/ha
How it was run: as §1

large (Lg) crabgrass [10] = test: Test A postemergence; assay type: in vivo, Digitaria sanguinalis; details: 0 to 100 scale where 0 is no effect and 100 is complete control; for Crabgrass, Large plant response rating: 125 g ai/ha; for Plant response rating, Crabgrass, Large: 500 g ai/ha
How it was run: as §1

giant foxtail [11] = test: Test A postemergence; assay type: in vivo, Setaria faberii; details: 0 to 100 scale where 0 is no effect and 100 is complete control; for Foxtail, Giant plant response rating: 125 g ai/ha; for Plant response rating, Foxtail, Giant: 500 g ai/ha
How it was run: as §1

morningglory [12] = test: Test A postemergence; assay type: in vivo, Ipomoea spp.; details: 0 to 100 scale where 0 is no effect and 100 is complete control; for Morningglory plant response rating: 125 g ai/ha; for Plant response rating, Morningglory: 500 g ai/ha
How it was run: as §1

pigweed [13] = test: Test A postemergence; assay type: in vivo, Amaranthus retroflexus; details: 0 to 100 scale where 0 is no effect and 100 is complete control; for Pigweed plant response rating: 125 g ai/ha; for Plant response rating, Pigweed: 500 g ai/ha
How it was run: as §1

velvetleaf [14] = test: Test A postemergence; assay type: in vivo, Abutilon theophrasti; details: 0 to 100 scale where 0 is no effect and 100 is complete control; for Velvetleaf plant response rating: 125 g ai/ha; for Plant response rating, Velvetleaf: 500 g ai/ha
How it was run: as §1

wheat [15] = test: Test A postemergence; assay type: in vivo, Triticum aestivum; details: 0 to 100 scale where 0 is no effect and 100 is complete control; for Wheat plant response rating: 125 g ai/ha; for Plant response rating, Wheat: 500 g ai/ha
How it was run: as §1

corn [16] = test: Test A postemergence; assay type: in vivo, Zea mays; details: 0 to 100 scale where 0 is no effect and 100 is complete control; for Corn plant response rating: 125 g ai/ha; for Plant response rating, Corn: 500 g ai/ha
How it was run: as §1

rice = test: Test B flooded paddy test; assay type: in vivo, Oryza sativa; details: Flood, 250 g ai/ha; 0 to 100 scale where 0 is no effect and 100 is complete control
How it was run: (§2)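 Plants were grown to the 2-leaf stage, then pots were flooded to 3 cm above the soil and compounds were applied directly into the paddy water. That depth was held throughout, and after 13 to 15 days in the greenhouse injury was rated visually against controls on a 0–100 scale (0 no effect, 100 complete control).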

sedge, umbrella = test: Test B flooded paddy test; assay type: in vivo, Cyperus difformis; details: Flood, 250 g ai/ha; 0 to 100 scale where 0 is no effect and 100 is complete control
How it was run: as §2

Heteranthera limosa = test: Test B flooded paddy test; assay type: in vivo; details: Flood, 250 g ai/ha; 0 to 100 scale where 0 is no effect and 100 is complete control
How it was run: as §2

barnyardgrass [17] = test: Test B flooded paddy test; assay type: in vivo, Echinochloa crus-galli; details: Flood, 250 g ai/ha; 0 to 100 scale where 0 is no effect and 100 is complete control
How it was run: as §2

SMILES | Plant response rating, Barnyardgrass (barnyardgrass [1]) | Barnyardgrass plant response rating (barnyardgrass [1]) | Plant response rating, Crabgrass, Large (large (Lg) crabgrass [2]) | Crabgrass, Large plant response rating (large (Lg) crabgrass [2]) | Plant response rating, Foxtail, Giant (giant foxtail [3]) | Foxtail, Giant plant response rating (giant foxtail [3]) | Morningglory plant response rating (0 to 100 scale) (morningglory [4]) | Pigweed plant response rating (0 to 100 scale) (pigweed [5]) | Pigweed plant response rating (pigweed [5]) | Velvetleaf plant response rating (0 to 100 scale) (velvetleaf [6]) | Velvetleaf plant response rating (velvetleaf [6]) | Wheat plant response rating (0 to 100 scale) (wheat [7]) | Wheat plant response rating (wheat [7]) | Plant response rating, Corn (corn [8]) | Corn plant response rating (corn [8]) | Barnyardgrass plant response rating (barnyardgrass [9]) | Plant response rating, Barnyardgrass (barnyardgrass [9]) | Crabgrass, Large plant response rating (large (Lg) crabgrass [10]) | Plant response rating, Crabgrass, Large (large (Lg) crabgrass [10]) | Foxtail, Giant plant response rating (giant foxtail [11]) | other results
N#Cc1cccc(Oc2ncc(Br)cn2)c1-n1cccn1 [Compound 165] | 0 | 20 | 50 | 90 | 20 | 90 | 0 | 60 | 90 | 10 | 20 | 0 | 0 | 0 | 0 | 0 | 0 | 0 | 10 | 10 | Plant response rating, Foxtail, Giant (giant foxtail [11]): 20; Morningglory plant response rating (morningglory [12]): 10; Plant response rating, Morningglory (morningglory [12]): 20; Pigweed plant response rating (pigweed [13]): 30; Plant response rating, Pigweed (pigweed [13]): 80; Velvetleaf plant response rating (velvetleaf [14]): 10; Plant response rating, Velvetleaf (velvetleaf [14]): 30; Wheat plant response rating (wheat [15]): 0; Plant response rating, Wheat (wheat [15]): 0; Corn plant response rating (corn [16]): 0; Plant response rating, Corn (corn [16]): 0; Plant response rating, Rice (rice): 0; Plant response rating, Sedge, Umbrella (sedge, umbrella): 0; Plant response rating, Ducksalad (Heteranthera limosa): 0; Plant response rating, Barnyardgrass (barnyardgrass [17]): 0
N#Cc1cnc(Oc2cccc(C(F)F)c2-n2cc(Br)cn2)nc1 [Compound 175] | 0 | 0 | 0 | 0 | 0 | 0 | 0 | 0 | 0 | 0 | 0 | 0 | 0 | 0 | 0 | 0 | 0 | 0 | 0 | 0 | Morningglory plant response rating (morningglory [4]): 0; Plant response rating, Foxtail, Giant (giant foxtail [11]): 0; Morningglory plant response rating (morningglory [12]): 0; Plant response rating, Morningglory (morningglory [12]): 0; Pigweed plant response rating (pigweed [13]): 0; Plant response rating, Pigweed (pigweed [13]): 0; Velvetleaf plant response rating (velvetleaf [14]): 0; Plant response rating, Velvetleaf (velvetleaf [14]): 0; Wheat plant response rating (wheat [15]): 0; Plant response rating, Wheat (wheat [15]): 0; Corn plant response rating (corn [16]): 0; Plant response rating, Corn (corn [16]): 0; Plant response rating, Rice (rice): 0; Plant response rating, Sedge, Umbrella (sedge, umbrella): 0; Plant response rating, Ducksalad (Heteranthera limosa): 0; Plant response rating, Barnyardgrass (barnyardgrass [17]): 0
N#Cc1cnc(Oc2cccc(C=O)c2-n2cc(Br)cn2)nc1 [Compound 174] | 0 | 0 | 0 | 0 | 0 | 0 | 0 | 0 | 0 | 0 | 0 | 0 | 0 | 0 | 0 | 0 | 0 | 0 | 0 | 0 | Morningglory plant response rating (morningglory [4]): 0; Plant response rating, Foxtail, Giant (giant foxtail [11]): 0; Morningglory plant response rating (morningglory [12]): 0; Plant response rating, Morningglory (morningglory [12]): 0; Pigweed plant response rating (pigweed [13]): 0; Plant response rating, Pigweed (pigweed [13]): 0; Velvetleaf plant response rating (velvetleaf [14]): 0; Plant response rating, Velvetleaf (velvetleaf [14]): 0; Wheat plant response rating (wheat [15]): 0; Plant response rating, Wheat (wheat [15]): 0; Corn plant response rating (corn [16]): 0; Plant response rating, Corn (corn [16]): 0; Plant response rating, Rice (rice): 0; Plant response rating, Sedge, Umbrella (sedge, umbrella): 0; Plant response rating, Ducksalad (Heteranthera limosa): 0; Plant response rating, Barnyardgrass (barnyardgrass [17]): 0
